{"source": "patent US20100209426A1", "about": "“INHIBITORS OF PROGASTRIN-INDUCED REPRESSION OF ICAT FOR TREATING AND/OR PREVENTING COLORECTAL CANCER, ADENOMATOUS POLYPOSIS OR METASTASIS DISPLAYING PROGASTRIN-SECRETING CELLS AND CELLS IN WHICH THE BETA-CATENIN/TCF-MEDIATED TRANSCRIPTIONAL PATHWAY IS CONSTITUTIVELY ACTIVE” (INSERM (INSTITUT NATIONAL DE LA SANTE ET DE LA REC HERCHE …, priority 2006, published 2010)", "key": {"APCΔ14 mice": {"test_system": "APCΔ14 mice", "assay": "siRNA treatment of APCΔ14 mice (spontaneous intestinal tumorigenesis)", "type": "in vivo, mouse", "description": "(§1) APCΔ14 mice were housed in conventional conditions, and randomized in two groups. The first group (n=9), was treated once daily by intraperitoneal administration of 250 μg/kg siRNA against the murine GAST mRNA. Control mice (n=9) were treated with a similar dose of siRNA against Luciferase. (siRNA sequence on FIG. S7 online). […] Adenoma scoring in the intestine and colon was described in (Colnot et al., 2004). Samples of healthy intestinal mucosa, as well as intestinal and colon adenomas, were fixed in 4% PFA and paraffin-embedded, or frozen in liquid nitrogen, for Western blotting, IHC or RNA extraction. Plasma was prepared and assayed for IL-6 and TNFα using the FACSarray system (Becton Dickinson)."}, "[1]": {"test_system": "Colo-26 murine CRC cells and Young adult mouse colon (YAMC) cells", "assay": "GAST mRNA after siRNA transfection of murine cells (RT-QPCR)", "type": "cell-based", "settings": "mouse cells (FIG. S1)"}, "[2]": {"assay": "Plasma IL-6 and TNFα in siRNA-treated APCΔ14 mice", "type": "in vivo, mouse", "settings": "two-week treatment, GAST siRNA versus Luc siRNA", "description": "as §1"}}, "data": [{"substance": "siRNA directed against the murine GAST gene: siRNA against the murine GAST mRNA; siRNAs mPG sense 5′-GAAGAGGCCUACGGAUGGTT-3′ (SEQ ID No 29), antisense SEQ ID No 30 (antisense CCAUCCGUAGGCCUCUUCTT; chemistry not given here)", "values": [{"measurement": "ICAT expression in adenomas", "setting": "APCΔ14 mice; APCΔ14 mice treated with siRNA", "result": "significantly increased"}, {"measurement": "expression of Tcf-4 target genes in adenomas", "setting": "APCΔ14 mice; APCΔ14 mice treated with siRNA", "result": "strong repression"}, {"measurement": "number of cells staining for activated caspase 3 in adenomas", "setting": "APCΔ14 mice; APCΔ14 mice treated with siRNA, immunohistochemistry", "result": "strongly elevated"}, {"measurement": "Muc-2 and Alcian-blue positive cells in remaining small intestinal and colonic adenomas", "setting": "APCΔ14 mice; APCΔ14 mice treated with siRNA, immunohistochemistry, compared to controls", "result": "greatly increased numbers"}, {"measurement": "decrease in the total number of intestinal tumors", "setting": "APCΔ14 mice; APCΔ14 mice, 250 μg/kg siRNA intraperitoneal once daily for two weeks, compared to Luciferase siRNA control animals", "result": 20, "unit": "%"}, {"measurement": "reduction in tumor size in the colon", "setting": "APCΔ14 mice; APCΔ14 mice, daily siRNA for two weeks, colon, Fischer's exact test p=0.228", "result": "not reaching significance"}, {"measurement": "GAST gene and progastrin expression in intestinal adenomas", "setting": "APCΔ14 mice; APCΔ14 mice, daily siRNA for two weeks, compared to Luciferase-specific siRNA", "result": "reduction"}, {"measurement": "tumor size in the intestine", "setting": "APCΔ14 mice; APCΔ14 mice, daily siRNA for two weeks, compared to controls, Chi-square p<0.0001, n=9 per group", "result": "significant reduction"}, {"measurement": "reduction in tumor size in the ileum", "setting": "APCΔ14 mice; APCΔ14 mice, daily siRNA for two weeks, ileum", "result": "particularly marked"}, {"measurement": "down-regulation of GAST in mouse cells", "setting": "[1]", "result": "effective"}, {"measurement": "levels of plasma IL-6 and TNFα (proinflammatory response)", "setting": "[2]", "result": "No significant differences"}]}]}
